# What was measured:
# [1] = test system: HT29; assay: NCI 60 panel growth inhibition (SRB), colon cancer; type: cell-based, human; conditions: HT29, 10 μM
# Procedure, shortened: (§1)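 Selected compounds progressed from a single-dose mean-graph screen to five-concentration testing. Percentage growth, with negative values indicating cell kill below Tz, was computed per level, giving TGI among three parameters.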
# [2] = test system: U251; assay: NCI 60 panel growth inhibition (SRB), CNS cancer; type: cell-based, human; conditions: U251, 10 μM
# Procedure, shortened: as §1
# [3] = test system: LOX IMVI; assay: NCI 60 panel growth inhibition (SRB), melanoma; type: cell-based, human; conditions: 10 μM
# Protocol: (§2) Screening of cytotoxic activity against a panel of sixty human tumor cell lines The selected compounds by NCI were evaluated for their anticancer activity in a two- stage process. […] Then, the output from the single dose screen is reported as a mean graph. […] Assay protocol. […] For a typical screening experiment, cells are inoculated into 96 well microtiter plates in 100 µL at plating densities ranging from 5000 to 40,000 cells/well depending on the doubling time of individual cell lines. […] After 24 h, two plates of each cell line are fixed in situ with TCA, to represent a measurement of the cell population for each cell line at the time of drug addition (Tz). The experimental drugs are solubilized in dimethyl sulfoxide at 400-fold the desired final maximum test concentration and stored frozen prior to use. At the time of drug addition, an aliquot of frozen concentrate is thawed and diluted to twice the desired final maximum test concentration with complete medium containing 50 µg/mL gentamicin. Additional four, 10-fold or ½ log serial dilutions are made to provide a total of five drug concentrations plus control. […] For adherent cells, the assay is terminated by the addition of cold TCA. […] The supernatant is discarded, and the plates are washed five times with tap water and air dried. […] Using the seven absorbance measurements [time zero, (Tz), control growth, (C), and test growth in the presence of drug at the five concentration levels (Ti)], the percentage growth is calculated at each of the drug concentrations levels. Percentage growth inhibition is calculated as: [(Ti Tz)/(C–Tz)] x 100 for concentrations for which Ti>/=Tz and [(Ti-Tz)/Tz] x 100 for concentrations for which Ti < Tz. Three dose response parameters are calculated for each experimental agent. […] The drug concentration resulting in total growth inhibition (TGI) is calculated from Ti = Tz. […] Values are calculated for each of these three parameters if the level of activity is reached; however, if the effect is not reached or is exceeded, the value for that parameter is expressed as greater or less than the maximum or minimum concentration tested.
# [4] = test system: M14; assay: NCI 60 panel growth inhibition (SRB), melanoma; type: cell-based, human; conditions: M14, 10 μM
# Protocol: as §2
# [5] = test system: MDA-MB-435; assay: NCI 60 panel growth inhibition (SRB), melanoma; type: cell-based, human; conditions: MDA-MB-435, 10 μM
# Protocol: as §2
# [6] = test system: SK-MEL-28; assay: NCI 60 panel growth inhibition (SRB), melanoma; type: cell-based, human; conditions: SK-MEL-28, 10 μM
# Protocol: as §2
# [7] = test system: SK-MEL-2; assay: NCI 60 panel growth inhibition (SRB), melanoma; type: cell-based, human; conditions: SK-MEL-2, 10 μM
# Protocol: as §2
# [8] = test system: SK-MEL-5; assay: NCI 60 panel growth inhibition (SRB), melanoma; type: cell-based, human; conditions: SK-MEL-5, 10 μM
# Protocol: as §2
# [9] = test system: UACC-257; assay: NCI 60 panel growth inhibition (SRB), melanoma; type: cell-based, human; conditions: UACC-257, 10 μM
# Protocol: as §2
# [10] = test system: UACC-62; assay: NCI 60 panel growth inhibition (SRB), melanoma; type: cell-based, human; conditions: UACC-62, 10 μM
# Protocol: as §2
# [11] = test system: 786-0; assay: NCI 60 panel growth inhibition (SRB), renal cancer; type: cell-based, human; conditions: 786-0, 10 μM
# Protocol: as §2
# [12] = test system: A498; assay: NCI 60 panel growth inhibition (SRB), renal cancer; type: cell-based, human; conditions: A498, 10 μM
# Protocol: as §2
# [13] = test system: ACHN; assay: NCI 60 panel growth inhibition (SRB), renal cancer; type: cell-based, human; conditions: 10 μM
# Protocol: as §2
# [14] = test system: CAKI-1; assay: NCI 60 panel growth inhibition (SRB), renal cancer; type: cell-based, human; conditions: CAKI-1, 10 μM
# Protocol: as §2
# [15] = test system: RXF 393; assay: NCI 60 panel growth inhibition (SRB), renal cancer; type: cell-based, human; conditions: RXF 393, 10 μM
# Protocol: as §2
# [16] = test system: SN12C; assay: NCI 60 panel growth inhibition (SRB), renal cancer; type: cell-based, human; conditions: 10 μM
# Protocol: as §2
# [17] = test system: TK-10; assay: NCI 60 panel growth inhibition (SRB), renal cancer; type: cell-based, human; conditions: TK-10, 10 μM
# Protocol: as §2
# [18] = test system: UO-31; assay: NCI 60 panel growth inhibition (SRB), renal cancer; type: cell-based, human; conditions: UO-31, 10 μM
# Protocol: as §2
# [19] = test system: DU-145; assay: NCI 60 panel growth inhibition (SRB), prostate cancer; type: cell-based, human; conditions: DU-145, 10 μM
# Protocol: as §2
# [20] = test system: BT-549; assay: NCI 60 panel growth inhibition (SRB), breast cancer; type: cell-based, human; conditions: BT-549, 10 μM
# Protocol: as §2
# [21] = test system: HS 578T; assay: as above; type: cell-based, human; conditions: 10 μM
# Protocol: as §2
# [22] = test system: MCF7; assay: as above; type: cell-based, human; conditions: MCF7, 10 μM
# Protocol: as §2
# [23] = test system: MDA-MB-231/ATCC; assay: as above; type: cell-based, human; conditions: 10 μM
# Protocol: as §2
# [24] = test system: MDA-MB-468; assay: as above; type: cell-based, human; conditions: MDA-MB-468, 10 μM
# Protocol: as §2
# [25] = test system: T-47D; assay: as above; type: cell-based, human; conditions: 10 μM
# Protocol: as §2
# [26] = test system: MALME-3M; assay: NCI 60 panel growth inhibition (SRB), melanoma; type: cell-based, human; conditions: 10 μM
# Protocol: as §2
# [27] = test system: PC-3; assay: NCI 60 panel growth inhibition (SRB), prostate cancer; type: cell-based, human; conditions: PC-3, 10 μM
# Protocol: as §2
Compound,GI% [1],GI% [2],GI% [3] [%],GI% [4],GI% [5],GI% [6],GI% [8],GI% [9],GI% [10],GI% [12],GI% [13] [%],GI% [14] [%],GI% [15],GI% [16] [%],GI% [17],GI% [18],GI% [19],GI% [20],GI% [22] [%],GI% [23] [%],further results
"COc1cccc(-c2nc3ccccc3s2)c1OCC(=O)NN=C1C(=O)Nc2ccc(Cl)cc21 [Compound 9k, 2-(2-(Benzo[d]thiazol-2-yl)-6-methoxyphenoxy)-N′-(5-chloro-2-oxoindolin-3-ylidene)acetohydrazide]",14.83%,– (GI% < 5%),13.16,– (GI% < 5%),– (GI% < 5%),– (GI% < 5%),23.55%,– (GI% < 5%),32.61%,– (GI% < 5%),26.60,39.78,37.81%,14.00,– (GI% < 5%),33.24%,– (GI% < 5%),7.55%,35.93,19.83,GI% [7]: 12.78%; GI% [11]: 22.12%; GI% [21]: 8.19%; GI% [24]: 27.13%; GI% [25]: 40.62%; melting point: 263 to 265 °C
"COc1ccc(-c2nc3ccccc3s2)cc1OCC(=O)NN=C1C(=O)Nc2ccccc21 [Compound 9m, 2-(5-(Benzo[d]thiazol-2-yl)-2-methoxyphenoxy)-N′-(2-oxoindolin-3-ylidene) acetohydrazide]",– (GI% < 5%),13.36%,18.28,– (GI% < 5%),– (GI% < 5%),– (GI% < 5%),– (GI% < 5%),– (GI% < 5%),– (GI% < 5%),– (GI% < 5%),19.82,9.28,– (GI% < 5%),7.15,10.32%,– (GI% < 5%),5.42%,– (GI% < 5%),33.97,9.78,GI% [26]: – (GI% < 5%); GI% [7]: – (GI% < 5%); GI% [27]: 7.63%; GI% [21]: – (GI% < 5%); GI% [24]: 8.24%; melting point: 192 to 194 °C
"COc1ccc(-c2nc3ccccc3s2)cc1OCC(=O)NN=C1C(=O)Nc2ccc([N+](=O)[O-])cc21 [Compound 9p, 2-(5-(Benzo[d]thiazol-2-yl)-2-methoxyphenoxy)-N′-(5-nitro-2-oxoindolin-3-ylidene)acetohydrazide]",– (GI% < 5%),78.07%,13.12,– (GI% < 5%),– (GI% < 5%),– (GI% < 5%),5.61%,– (GI% < 5%),19.19%,20.06%,76.97,45.22,99.84%,37.68,96.63%,19.08%,– (GI% < 5%),54.51%,17.21,49.20,GI% [26]: 8.36%; GI% [7]: 115.65%; GI% [11]: 87.35%; GI% [27]: 11.94%; GI% [21]: 96.22%; GI% [24]: 17.86%; melting point: 288 to 290 °C
"COc1ccc(-c2nc3ccccc3s2)cc1OCC(=O)NN=C1C(=O)Nc2ccc(Cl)cc21 [Compound 9q, 2-(5-(Benzo[d]thiazol-2-yl)-2-methoxyphenoxy)-N′-(5-chloro-2-oxoindolin-3-ylidene)acetohydrazide]",6.74%,63.50%,72.29,23.59%,37.37%,– (GI% < 5%),12.80%,– (GI% < 5%),12.95%,– (GI% < 5%),59.32,50.03,32.76%,36.67,62.99%,20.65%,19.41%,23.63%,57.82,59.98,GI% [26]: 26.21%; GI% [7]: 56.54%; GI% [11]: 44.24%; GI% [27]: 26.21%; GI% [21]: 74.27%; GI% [24]: – (GI% < 5%); melting point: 260 to 262 °C
"COc1ccc(-c2nc3ccccc3s2)cc1OCC(=O)NN=C1C(=O)Nc2ccc(Br)cc21 [Compound 9r, 2-(5-(Benzo[d]thiazol-2-yl)-2-methoxyphenoxy)-N′-(5-bromo-2-oxoindolin-3-ylidene)acetohydrazide]",– (GI% < 5%),30.21%,38.27,9.47%,– (GI% < 5%),– (GI% < 5%),– (GI% < 5%),– (GI% < 5%),– (GI% < 5%),– (GI% < 5%),30.78,29.61,15.08%,20.61,36.32%,15.64%,– (GI% < 5%),21.16%,35.42,42.55,GI% [26]: 11.71%; GI% [7]: 17.63%; GI% [11]: 20.37%; GI% [27]: 16.13%; GI% [21]: 46.81%; GI% [24]: – (GI% < 5%); melting point: 271 to 273 °C
"CNC(=O)c1nn(C)c2c1C(C)(C)Cc1cnc(Nc3ccc(N4CCN(C)CC4)cc3)nc1-2 [Milciclib, reference compound]",116.2%,91.50%,94.70,87.5%,78.9%,83.80%,92.70%,114.80%,109.5%,161.60%,90.4,92.30,148.20%,88.70,112.5%,108.7%,84.50%,94.80%,89.60,85.30,GI% [26]: 108.70%; GI% [11]: 87.70%; GI% [27]: 92.10%; GI% [24]: 113.40%; GI% [25]: 105.70%

# From publication PMC11396129, “Oxindole–benzothiazole hybrids as CDK2 inhibitors and anticancer agents: design, synthesis and biological evaluation” (BMC Chemistry, 2024)
